Drawing on PubChem BioAssay AID602167 (The Scripps Research Institute Molecular Screening Center, 2012), this text covers IC50 for 36 compounds.

The target in this experiment is transactivating tegument protein VP16 (Human herpesvirus 1), as a GAL4-VP16 activation-domain luciferase reporter. The experiment is described as follows: VP16 transactivation inhibitor potency, dose response, counter-screen for SRC3 inhibitor project, cell-based, luminescence, high throughput, SRC3 series (AID 602167). To be noted: VP16 transactivation luciferase reporter cells. (Counterscreens check selectivity or assay interference.)

Activity calls are given as the source filed them. The rule behind the calls is not given here. Bounds are passed on as bounds.

With `CC(=O)N1CCN(c2ncnc3ccccc23)CC1`, the IC50 entry is “inactive”. `O=C(Nc1cccc(C(F)(F)F)c1)Nc1nnc([C@@H]2C[C@H](O)[C@@H](CO)O2)s1`: the IC50 is 6.98 µM. For the compound `CN1CCN(c2ccc(NC(=O)N3CCc4ccccc43)cc2)CC1`, the IC50 entry is “inactive”. Regarding `COc1ccc(OC)c(Cc2cnc3nc(N)nc(N)c3c2C)c1`, the IC50 was > 35.9 µM (inactive).

`COc1cc(C(=O)OCC(=O)Nc2sccc2C(N)=O)cc(OC)c1OC`: the IC50 was > 35.9 µM (inactive). The value for `COc1cc([C@@H]2c3cc4c(cc3[C@@H](O[C@@H]3O[C@@H]5CO[C@@H](C)O[C@H]5[C@H](O)[C@H]3O)[C@H]3COC(=O)[C@H]23)OCO4)cc(OC)c1O` was > 35.9 µM (inactive); that for `O=C(CCl)Nc1cccc(-c2cnc3ccccc3n2)c1` was “inactive”. Regarding `Cc1cc(C(=O)CN2C(=O)c3ccccc3S2(=O)=O)c(C)n1C(C)C`, the IC50 result is “inactive”.

For `C(=Cc1cnc2ccccc2n1)c1ccc2c(c1)OCO2`, the IC50 result was “inactive”.

Consider `Cc1ccc(-n2c(C)cc(C(=O)COc3cccnc3[N+](=O)[O-])c2C)cc1`, for which the IC50 entry was “inactive”. The entry for `CN1C(=O)C2(C(C#N)=C(N)N(c3cc(Cl)cc(Cl)c3)C3=C2C(=O)CCC3)c2ccccc21` (stereo unspecified) is “inactive”.

`O=C(NC(NC(=S)N1CCOCC1)C(Cl)(Cl)Cl)c1ccc(Cl)cc1` (stereo unspecified): the IC50 is > 35.9 µM (inactive).

`C=CC[n+]1c(-c2ccc(C)cc2)csc1Nc1ccc(NC(C)=O)cc1`: the IC50 was > 35.9 µM (inactive). Regarding `COc1ccc(C(C(=O)NC2CCCCC2)N(C(=O)CCl)c2ccc(OC)cc2)cc1` (stereo unspecified), the half-inhibitory concentration (IC50) was 6.59 µM. Take `Nc1ncccc1C(=O)OCC(=O)N1CCN(S(=O)(=O)c2ccc(Cl)cc2)CC1`: the IC50 is 9.87 µM. In the case of `O=[N+]([O-])c1cccc2c1ccc1ncccc12`, the IC50 entry was “inactive”. For `COc1cc2c(ccc3cc(OC)c(OC)c(O)c32)cc1O`, the IC50 result was “inactive”. Take `O=C(CC1CS(=O)(=O)CC1CC(=O)Nc1ccc2c(c1)OCCO2)Nc1ccc2c(c1)OCCO2` (stereo unspecified): the IC50 result is “inactive”. The entry for `O=c1[nH]cnc2c1nnn2C1OC(CO)C(O)C1O` (stereo unspecified) is “inactive”. The value for `CC(=O)NC(c1cc(Cl)c2cccnc2c1O)C(C)C` (stereo unspecified) was “inactive”; that for `CN(C)c1ccc(C(=S)Nc2ccccc2)cc1` was > 35.9 µM (inactive).

Regarding `CCC(=O)N1CCN(c2ccnc3cc(Cl)ccc23)CC1`, the IC50 result is “inactive”.

Regarding `Nc1nc(CCl)nc(Nc2cccc3ccccc23)n1`, the IC50 entry was “inactive”. The value for `Nc1ccc(-c2cc3ccccc3oc2=O)cc1` was > 35.9 µM (inactive); that for `C=CCn1c(O)c(C(C)=NCc2cc(OC)cc(OC)c2)c(=O)[nH]c1=O` was “inactive”.

As to `COc1cc(/C=C2\CC(C(C)(C)C)C/C(=C\c3cc(OC)c(OC)c(OC)c3)C2=O)cc(OC)c1OC` (stereo unspecified), the concentration for half-maximal inhibition (IC50) was 4.47 µM. The figure for `S=C(Nc1ccccc1)Nc1ccc(OCc2ccc(Cl)cc2Cl)cc1` is 7.96 µM; for `COc1ccc(-c2nsc3c(N4CCCCC4)ncnc23)cc1` it is “inactive”. With `O=c1[nH]c(O)c(N=Nc2ccc3c(c2)OCCO3)c(=O)[nH]1`, the IC50 entry is “inactive”. The figure for `O=[N+]([O-])c1ccc(N(CCO)CCO)c2c1no[n+]2[O-]` is 5.59 µM; for `O=[N+]([O-])c1nn(-c2ccc3c(c2)OCCO3)n(O)c1=Nc1ccccc1` it is 9.18 µM; for `CS(=O)c1nc(-c2ccc(Br)cc2)cc(-c2ccccc2)c1C#N` (stereo unspecified) it is “inactive”. The figure for `Cc1ccc(-n2c(Cl)c(Cl)nc(Cl)c2=O)cc1` is 4.07 µM; for `CC(=O)/C(N=Nc1ccc2c(c1)OCCO2)=C(\C)O` it is > 12 µM (inactive). The value for `O=C(CCl)N(c1ccccc1)C1CCCCC1` was “inactive”; that for `Cc1nc([N+](=O)[O-])c(Sc2nc3ccccc3n2C)n1Cc1ccccc1` was “inactive”.

Broadly, the IC50 is the midpoint of a concentration-inhibition curve.
